pIC50: −log10 of the molar value.
Biological target: human IDO1 (Homo sapiens, UniProt P14902)
Experiment: Assessment of human IDO-1 inhibitory activity in HEK cells (human IDO1/HEK293 cells, Ehrlich reagent, absorbance at 490 nm)
Format: cell-based
Parameters: expressed in transfected cells
Conditions: In Vitro Potency in the HEK Human IDO-1 Cellular Assay
In short: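 Stable human IDO1-expressing HEK293 cells treated with compound for 20 h at 37 °C in phenol red-free RPMI/10% FBS. Stopped with 0.2% TCA (final) and heated 30 min at 50 °C; supernatant mixed with Ehrlich reagent, absorbance read at 490 nm. IC50 normalised to DMSO (0%) and 500 nM reference standard (100% inhibition).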

Chain of human IDO1 (P14902 whole entry): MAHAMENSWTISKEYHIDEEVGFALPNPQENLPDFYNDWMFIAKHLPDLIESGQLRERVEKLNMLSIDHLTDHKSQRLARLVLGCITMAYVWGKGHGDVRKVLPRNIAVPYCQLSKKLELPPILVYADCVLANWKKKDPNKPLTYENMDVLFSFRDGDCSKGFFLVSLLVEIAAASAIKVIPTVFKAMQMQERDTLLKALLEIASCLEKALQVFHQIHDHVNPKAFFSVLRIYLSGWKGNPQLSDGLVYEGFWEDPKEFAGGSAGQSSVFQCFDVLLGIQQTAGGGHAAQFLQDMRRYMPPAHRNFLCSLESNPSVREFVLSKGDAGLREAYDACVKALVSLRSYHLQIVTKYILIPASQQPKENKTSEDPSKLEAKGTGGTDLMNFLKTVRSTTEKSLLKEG

## COCC(CC(=O)O)c1ccc(N(CC(C)C)C2CCCCC2)c(NC(=O)Nc2ccc(C)cc2)c1 (single isomer, unassigned) [Example 989-2]
  pIC50: > 8.30

## COCC(CC(=O)O)c1ccc(N(CC(C)C)CC(C)C)c(NC(=O)Nc2ccc(C)cc2)c1 (single isomer, unassigned) [Example 993-2]
  pIC50: > 7.30

## COCC(CC(=O)O)c1ccc(N(CC(C)C)CC(C)C)c(NC(=O)Nc2ccc(Cl)cc2F)c1 (single isomer, unassigned) [Example 995-2]
  pIC50: > 8.30

## COCC(CC(=O)O)c1ccc(N(CC(C)C)CC(C)C)c(NC(=O)Nc2cc(C)on2)c1 (single isomer, unassigned) [Example 999-2]
  pIC50: > 7.30

## Cc1ccc(CC(=O)Nc2cc(C(CC(=O)O)C(C)C)ccc2N(C)C(C)(C)C)cc1 (single isomer, unassigned) [Example 1007-2]
  pIC50: < 7.30

## CC(C)C(CC(=O)O)c1ccc(N(C)C(C)(C)C)c(Nc2nc3ccccc3o2)c1 (single isomer, unassigned) [Example 1008-2]
  pIC50: < 7.30

## CCC(CC(=O)O)c1ccc(N(CC(C)C)CC(C)C)c(NC(=O)Cc2ccc(C#N)cc2)c1 (single isomer, unassigned) [Example 1105, 3-(3-(2-(4-Cyanophenyl)acetamido)-4-(diisobutylamino)phenyl)pentanoic acid]
  pIC50: > 8.30

## CCC(CC(=O)O)c1cc(NC(=O)Nc2ccc(C)cc2)c(N(CC(C)C)C2CCCCC2)cc1F (single isomer, unassigned) [Example 1107, 3-(4-(Cyclohexyl(isobutyl)amino)-2-fluoro-5-(3-(p-tolyl)ureido)phenyl)pentanoic acid]
  pIC50: > 8.30

## CCOc1ccc(NC(=O)Nc2cc(C(CC)CC(=O)O)c(F)cc2N(CC(C)C)C2CCCCC2)cc1 (single isomer, unassigned) [Example 1109, 3-(4-(Cyclohexyl(isobutyl)amino)-5-(3-(4-ethoxyphenyl)ureido)-2-fluorophenyl) pentanoic acid]
  pIC50: > 8.30

## CCC(CC(=O)O)c1cc(NC(=O)Nc2ccc3c(c2)OCO3)c(N(CC(C)C)C2CCCCC2)cc1F (single isomer, unassigned) [Example 1112, 3-(5-(3-(Benzo[d][1,3]dioxol-5-yl)ureido)-4-(cyclohexyl(isobutyl)amino)-2-fluorophenyl)pentanoic acid]
  pIC50: > 8.30

## CCC(CC(=O)O)c1cc(NC(=O)Nc2cc(C)no2)c(N(CC(C)C)C2CCCCC2)cc1F (single isomer, unassigned) [Example 1115, 3-(4-(Cyclohexyl(isobutyl)amino)-2-fluoro-5-(3-(3-methylisoxazol-5-yl)ureido)phenyl)pentanoic acid]
  pIC50: > 8.30

## CCOc1ccc(NC(=O)Nc2cc(C(CC)CC(=O)O)c(F)cc2N(CC(C)C)C2CCCCC2)c(F)c1 (single isomer, unassigned) [Example 1118, 3-(4-(Cyclohexyl(isobutyl)amino)-5-(3-(4-ethoxy-2-fluorophenyl)ureido)-2-fluorophenyl)pentanoic acid]
  pIC50: > 8.30

## CCC(CC(=O)O)c1cc(NC(=O)Nc2ccc(C)cc2F)c(N(CC(C)C)C2CCCCC2)cc1F (single isomer, unassigned) [Example 1121, 3-(4-(Cyclohexyl(isobutyl)amino)-2-fluoro-5-(3-(2-fluoro-4-methylphenyl)ureido)phenyl)pentanoic acid]
  pIC50: > 8.30

## CCC(CC(=O)O)c1cc(NC(=O)Nc2cncnc2)c(N(CC(C)C)C2CCCCC2)cc1F (single isomer, unassigned) [Example 1124, 3-(4-(Cyclohexyl(isobutyl)amino)-2-fluoro-5-(3-(pyrimidin-5-yl)ureido)phenyl)pentanoic acid]
  pIC50: > 8.30

## CCC(CC(=O)O)c1cc(NC(=O)Nc2cnc(C)nc2)c(N(CC(C)C)C2CCCCC2)cc1F (single isomer, unassigned) [Example 1127, 3-(4-(Cyclohexyl(isobutyl)amino)-2-fluoro-5-(3-(2-methylpyrimidin-5-yl)ureido)phenyl)pentanoic acid]
  pIC50: > 8.30

## CCC(CC(=O)O)c1cc(NC(=O)Nc2ccc(C)cc2)c(N(CC(C)C)CC(C)C)cc1F (single isomer, unassigned) [Example 1130, 3-(4-(Diisobutylamino)-2-fluoro-5-(3-(p-tolyl)ureido)phenyl)pentanoic acid]
  pIC50: > 8.30

## CCOc1ccc(NC(=O)Nc2cc(C(CC)CC(=O)O)c(F)cc2N(CC(C)C)CC(C)C)cc1 (single isomer, unassigned) [Example 1133, 3-(4-(Diisobutylamino)-5-(3-(4-ethoxyphenyl)ureido)-2-fluorophenyl)pentanoic acid]
  pIC50: > 8.30

## CCC(CC(=O)O)c1cc(NC(=O)Nc2ccc3c(c2)OCO3)c(N(CC(C)C)CC(C)C)cc1F (single isomer, unassigned) [Example 1136, 3-(5-(3-(Benzo[d][1,3]dioxol-5-yl)ureido)-4-(diisobutylamino)-2-fluorophenyl) pentanoic acid]
  pIC50: > 8.30

## CCOc1ccc(NC(=O)Nc2cc(C(CC)CC(=O)O)c(F)cc2N(CC(C)C)CC(C)C)c(F)c1 (single isomer, unassigned) [Example 1139, 3-(4-(Diisobutylamino)-5-(3-(4-ethoxy-2-fluorophenyl)ureido)-2-fluorophenyl) pentanoic acid]
  pIC50: > 8.30

## CCC(CC(=O)O)c1cc(NC(=O)Nc2cnc(OC)nc2)c(N(CC(C)C)CC(C)C)cc1F (single isomer, unassigned) [Example 1142, 3-(4-(Diisobutylamino)-2-fluoro-5-(3-(2-methoxypyrimidin-5-yl)ureido)phenyl)pentanoic acid]
  pIC50: > 8.30

## CCC(CC(=O)O)c1ccc(N2CCC[C@@H]2COC)c(NC(=O)Cc2ccc(C)cc2)c1 (single isomer, unassigned) [Example 1145]
  pIC50: < 7.30

## COCC(CC(=O)O)c1cc(F)c(N(CC(C)C)C2CCCCC2)c(NC(=O)Nc2ccc(C)cc2)c1 (single isomer, unassigned) [Example 1161, 3-(4-(cyclohexyl(isobutyl)amino)-3-fluoro-5-(3-(p-tolyl)ureido)phenyl)-4-methoxybutanoic acid]
  pIC50: > 8.30

## COCC(CC(=O)O)c1cc(F)c(N(CC(C)C)C2CCCCC2)c(NC(=O)Nc2ccc(Cl)cc2F)c1 (single isomer, unassigned) [Example 1164, 3-(3-(3-(4-chloro-2-fluorophenyl)ureido)-4-(cyclohexyl(isobutyl)amino)-5-fluorophenyl)-4-methoxybutanoic acid]
  pIC50: > 8.30

## CCOc1ccc(NC(=O)Nc2cc(C(COC)CC(=O)O)cc(F)c2N(CC(C)C)C2CCCCC2)c(F)c1 (single isomer, unassigned) [Example 1165, 3-(4-(cyclohexyl(isobutyl)amino)-3-(3-(4-ethoxy-2-fluorophenyl)ureido)-5-fluorophenyl)-4-methoxybutanoic acid]
  pIC50: > 8.30

## COCC(CC(=O)O)c1cc(F)c(N(CC(C)C)C2CCCCC2)c(NC(=O)Nc2ccc(Cl)cc2)c1 (single isomer, unassigned) [Example 1166, 3-(3-(3-(4-chlorophenyl)ureido)-4-(cyclohexyl(isobutyl)amino)-5-fluorophenyl)-4-methoxybutanoic acid]
  pIC50: > 8.30

## CCOc1ccc(CC(=O)Nc2cc(C(COC)CC(=O)O)cc(F)c2N(CC(C)C)C2CCCCC2)cc1 (single isomer, unassigned) [Example 1173, 3-(4-(cyclohexyl(isobutyl)amino)-3-(2-(4-ethoxyphenyl)acetamido)-5-fluorophenyl)-4-methoxybutanoic acid]
  pIC50: > 7.30

Source: US10399932B2, “Inhibitors of indoleamine-2,3-dioxygenase for the treatment of cancer” (BRISTOL-MYERS SQUIBB COMPANY, priority 2015, dated 2019)
